Literature values as cited in paper PMC8453635, “Piperidine Azasugars Bearing Lipophilic Chains: Stereoselective Synthesis and Biological Activity as Inhibitors of Glucocerebrosidase (GCase)” (The Journal of Organic Chemistry, 2021).
Where a chain is given by its changes, count along the chain named. Like-named read-outs stand apart in the source and are kept apart here.

Tests used:
[1] = target: T1, GCase in fibroblasts bearing the N370S/RecNcil mutation (Homo sapiens, UniProt P04062, A495P/L483P/N409S); parameters: method as in PMID 30996807, PMID 32200326; conditions: 100 μM; cited from earlier work
T1 construct: fibroblasts derived from Gaucher patients bearing the N370S/RecNcil and L444P/L444P mutations; host or cells: fibroblasts from Gaucher disease patients, N370S/RecNcil
T1 sequence (P04062 40-536 N409S): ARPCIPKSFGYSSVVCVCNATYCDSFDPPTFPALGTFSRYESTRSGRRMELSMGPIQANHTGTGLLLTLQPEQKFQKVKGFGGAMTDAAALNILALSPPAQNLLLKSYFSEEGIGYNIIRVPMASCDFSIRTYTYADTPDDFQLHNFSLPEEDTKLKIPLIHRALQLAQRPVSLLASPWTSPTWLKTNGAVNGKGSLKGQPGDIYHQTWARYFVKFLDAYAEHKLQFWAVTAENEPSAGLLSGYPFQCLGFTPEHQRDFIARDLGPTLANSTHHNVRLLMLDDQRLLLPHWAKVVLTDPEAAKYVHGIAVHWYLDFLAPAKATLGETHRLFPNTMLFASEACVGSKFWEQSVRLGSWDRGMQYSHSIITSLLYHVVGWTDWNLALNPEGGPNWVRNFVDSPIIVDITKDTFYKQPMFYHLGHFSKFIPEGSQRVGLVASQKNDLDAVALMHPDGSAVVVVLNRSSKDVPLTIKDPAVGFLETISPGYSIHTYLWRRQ

GCase = target: T2, GCase (Homo sapiens, UniProt P04062); conditions: cited from earlier work; for IC50: human leukocytes, same experimental protocol and substrate concentration
T2 construct: screened toward GCase in leukocytes isolated from healthy donors (controls); from tissue; host or cells: leukocytes isolated from healthy donors, disrupted by sonication
T2 sequence (P04062 40-536): T1 sequence (P04062 40-536 N409S) with S370N

wild-type fibroblasts = test system: wild-type fibroblasts; parameters: method as in PMID 32200326; conditions: cited from earlier work
[2] = target: T3, GCase in fibroblasts bearing the L444P/L444P mutations (Homo sapiens, UniProt P04062, L483P); parameters: method as in PMID 30996807, PMID 32200326; conditions: homozygous L444P mutation, 100 μM; cited from earlier work
T3 construct: fibroblasts derived from Gaucher patients bearing the N370S/RecNcil and L444P/L444P mutations; host or cells: fibroblasts from Gaucher disease patients, L444P/L444P
T3 sequence (P04062 40-536 L483P): T1 sequence (P04062 40-536 N409S) with S370N, L444P

[3] = test system: N370S mutant enzyme in fibroblasts; conditions: cited from earlier work
lysosomal GCase = conditions: toward GCase; cited from earlier work
L444P variant = test system: L444P variant; parameters: method as in PMID 12434014; conditions: cited from earlier work

For CCCCCCCC[C@H]1NC[C@@H](O)[C@@H](O)[C@@H]1O [compound 12], the enzyme recovery [1] is listed as 1.9 fold, the IC50 (GCase; ref 16 and 17) is listed as 29.3 ± 1.8 µM and the “PC activity (enzyme activity enhancement)” value (wild-type fibroblasts; 100 μM) is listed as 1.4 fold. The enzyme recovery [2] was 1.80 fold.

In the case of CCCCCCCCC[C@H]1NC[C@@H](O)[C@H](O)[C@H]1O [compound 7, α-1-C-nonyl-DIX], the enzyme activity increase ([3]; N370S mutated fibroblasts at 10 nM) is listed as 1.8 fold and the IC50 (lysosomal GCase) is listed as 0.0068 µM.

In the case of CCCCCCCCCN1C[C@H](O)[C@@H](O)[C@H](O)[C@H]1CO [compound 5, N-nonyl-DNJ], the “increase in the activity of the N370S mutant enzyme” value ([3]; fibroblasts, 10 μM concentration) is listed as “twofold increase” and the “enhancement of intracellular activity of the L444P variant” value (L444P variant) is listed as “did not enhance”.

In the case of CCCCCCCCN1C[C@@H](O)C(O)[C@H](O)C1 [compound 9], the “GCase inhibition [%]” value (GCase; human leukocytes extracts incubated with azasugars (1 mM), previously reported compounds) is listed as 98%, the IC50 (GCase) is listed as 30 ± 1 µM and the activity increase ([3]; N370S-mutated fibroblasts at 100 μM) is listed as 1.25 fold. The “PC activity (enzyme activity enhancement)” value (wild-type fibroblasts; 50 μM) was 1.5 fold.

In the case of CCCCCCCC[C@@H]1NC[C@@H](O)[C@@H](O)[C@@H]1O [compound 11], the IC50 (GCase; ref 16 and 17) is given as 93.5 ± 5.3 µM.
